One test deals with HeLa cells. In words: Antiproliferative activity against HeLa cells (MTT cell viability). To be noted: for IC50: Homo sapiens, HeLa, 72 h, read-out: Drug Alone IC50.
Another test concerns B16 melanoma. The experiment in a line: Antitumor activity against B16 melanoma in mice. It counts as in vivo. To be noted: B16 melanoma s.c. day 0, i.p. once daily, 101,731 5 mg/kg day 1-7, Ara-C 10 mg/kg day 7-14; for % Inhibition (tumor weight): day 15; for Tumor Weight (g) (Mean ± S.D.): tumors weighed day 15. An excerpt:
Inject B16 melanoma cells (1×10^5 cells/mouse) subcutaneously on day 0. Administer compounds i.p. once daily as indicated. Sacrifice the animals on day 15, dissect the tumors and weigh.

For another test, the system named is Lewis lung carcinoma. The experiment in a line: Antitumor activity against Lewis lung carcinoma in mice (tumor weight, pulmonary metastatic foci). It counts as in vivo. To be noted: i.p. once daily, 101,731 5 mg/kg day 1-7, Ara-C 10 mg/kg day 7-14; for % Inhibition (tumor weight) / Tumor Weight (g) (Mean ± S.D.): 3LL cells s.c. day 0; for % Inhibition (tumor weight) / % Inhibition (No. of foci) / No. of Foci (Mean ± S.D.): day 15; for Tumor Weight (g) (Mean ± S.D.): tumors weighed day 15; for % Inhibition (No. of foci) / No. of Foci (Mean ± S.D.): pulmonary metastatic foci. An excerpt:
Inject 3 LL cells (1×10^5/mouse) s.c. on day 0. Administer compounds i.p., once daily as indicated. Sacrifice animals on day 15, dissect the tumors and weigh. Also count pulmonary metastatic foci.

≈ marks a conversion by molar mass, not a printed value.

Take `O=c1[nH]cc(F)c(=O)[nH]1` [5-Fluorouracil (5Fu), 5-Fluorouracil]: the half-inhibitory concentration (IC50) in the test on HeLa cells amounted to 41.1 µg/mL (≈ 316 µM).

In the case of `CC[C@]1(O)C[C@@H]2CN(CCc3c([nH]c4ccccc34)[C@@](C(=O)OC)(c3cc4c(cc3OC)N(C)[C@H]3[C@@](O)(C(=O)OC)[C@H](OC(C)=O)[C@]5(CC)C=CCN6CC[C@]43[C@@H]65)C2)C1` [Vinblastine (VLB), Vinblastine], the IC50 in the test on HeLa cells came out at 86.7 µg/mL (≈ 107 µM).

Consider `Nc1ccn([C@@H]2O[C@H](CO)[C@@H](O)/C2=C\F)c(=O)n1` [101,731, (E)-2′-deoxy-2′-fluoromethylidenecytidine], for which, in the test on B16 melanoma, the “% Inhibition (tumor weight)” value stood at 10% and the “Tumor Weight (g) (Mean ± S.D.)” value stood at 2.4 ± 0.9 g. For the same compound, in the test on Lewis lung carcinoma, the “% Inhibition (tumor weight)” value was found to be 20%, the “Tumor Weight (g) (Mean ± S.D.)” value is 2.8 ± 0.6 g, the “% Inhibition (No. of foci)” value was 0% and the “No. of Foci (Mean ± S.D.)” value is given as 15.5 ± 6. The “Effect on the growth of the tumor cells” value in the test with HeLa cells (MDL 101,731 alone, 15 ng/mL for 24 hours, HeLa cells) is “did not show any effect”.

On to `Nc1ccn([C@@H]2O[C@H](CO)[C@@H](O)[C@@H]2O)c(=O)n1` [Ara-C, Cytosine Arabinoside], for which, in the test with B16 melanoma, the “% Inhibition (tumor weight)” value is recorded as 0% and the “Tumor Weight (g) (Mean ± S.D.)” value is given as 3.6 ± 0.8 g. In addition, in the test with Lewis lung carcinoma, the “% Inhibition (tumor weight)” value amounted to 0%, the “Tumor Weight (g) (Mean ± S.D.)” value turned out to be 3.83 ± 0.8 g, the “% Inhibition (No. of foci)” value was 0% and the “No. of Foci (Mean ± S.D.)” value is on record as 14.6 ± 5. The “Drug + 101,731 IC50” value with HeLa cells (HeLa cells pretreated with MDL 101,731 15 ng/mL for 24 hours, washed, then drug for 72 hours, MTT) was found to be 3.2 µg/mL. The “Drug Alone IC50” value in the test on HeLa cells (HeLa cells, 72 hours exposure to drug, MTT) was 13.7 µg/mL.

For the origin of these results see patent US20050032738A1, “Method of treating cancer by conjunctive therapy with 2'-haloemethylidene derivatives and a S-phase or M-phase specific antineoplastic agent” (Merrell Pharmaceuticals Inc., priority 1992, published 2005).
